A word on the IC50: it is the concentration at which inhibition is half-maximal.

Each structure is given as a SMILES string.

Our source for the IC50 values is US10323043B2, “Derivatives of macrocyclic N-aryl-tricyclopyrimidine-2-amine polyethers as inhibitors of FTL3 and JAK” (PIERRE FABRE MEDICAMENT, priority 2014, dated 2019).

In this test the target is T1, FLT3^D835Y (Homo sapiens, UniProt P36888, D835Y).
T1 construct: purchased Merck Millipore 14-610
T1 sequence (P36888 27-993 D835Y): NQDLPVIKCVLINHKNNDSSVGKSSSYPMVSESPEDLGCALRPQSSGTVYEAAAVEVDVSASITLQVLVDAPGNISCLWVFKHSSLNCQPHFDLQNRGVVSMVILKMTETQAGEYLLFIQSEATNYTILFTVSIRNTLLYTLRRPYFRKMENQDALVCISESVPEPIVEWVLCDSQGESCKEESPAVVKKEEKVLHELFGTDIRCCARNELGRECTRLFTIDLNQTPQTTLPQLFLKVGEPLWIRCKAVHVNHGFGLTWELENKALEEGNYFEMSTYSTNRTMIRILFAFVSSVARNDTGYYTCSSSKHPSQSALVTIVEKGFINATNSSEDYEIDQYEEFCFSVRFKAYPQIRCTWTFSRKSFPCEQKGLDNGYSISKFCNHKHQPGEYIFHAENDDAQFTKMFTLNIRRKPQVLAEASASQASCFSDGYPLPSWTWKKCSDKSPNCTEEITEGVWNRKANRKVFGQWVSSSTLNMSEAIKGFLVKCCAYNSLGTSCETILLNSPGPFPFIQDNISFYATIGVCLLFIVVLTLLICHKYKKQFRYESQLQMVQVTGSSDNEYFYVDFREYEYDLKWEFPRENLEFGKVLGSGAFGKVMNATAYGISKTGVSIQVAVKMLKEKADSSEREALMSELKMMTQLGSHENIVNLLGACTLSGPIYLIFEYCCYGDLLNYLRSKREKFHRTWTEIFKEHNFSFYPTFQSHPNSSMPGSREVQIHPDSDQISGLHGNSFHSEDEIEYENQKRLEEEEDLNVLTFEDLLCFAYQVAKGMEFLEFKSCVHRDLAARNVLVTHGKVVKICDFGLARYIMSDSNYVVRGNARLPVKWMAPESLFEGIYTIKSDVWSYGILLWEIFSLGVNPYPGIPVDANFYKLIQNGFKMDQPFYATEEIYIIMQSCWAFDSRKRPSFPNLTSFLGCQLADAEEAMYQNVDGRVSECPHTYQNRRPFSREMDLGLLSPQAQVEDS
Description: LanthaScreen TR-FRET binding test, FLT3 D835Y. Particulars: FLT3^D835Y 15 nM, kinase tracer 236 3 nM, 25° C., 1 hour; read-out: Inhibition (IC50) of FLT3^D835Y enzyme. Here is the method:
FLT3 (#PV3182), JAK2 (#PV4210) and JAK3 (#PV3855) recombinant enzymes were purchased from Life Technologies. FLT3-ITD (#0778-0000-1) and FLT3^D835Y (#14-610) proteins were purchased from ProQinase and Merck Millipore, respectively. All the tests were carried out in 384-well plates. The principle of these binding tests is based on the LanthaScreen® TR-FRET methodology from Life Technologies.
The reaction mixture (15 μL total volume) contains the following compounds: 15 nM FLT3, FLT3-ITD or FLT3^D835Y, 3 nM kinase tracer 236 (Life Technologies, #PV5592) and 6 nM LanthaScreen® anti-GST antibody coupled to a europium chelate (Life Technologies, #PV5594) for FLT3-ITD and FLT3^D835Y or 6 nM LanthaScreen® anti-His antibody coupled to a europium chelate (Life Technologies, #PV5596) for FLT3.
The compounds are evaluated at 8 different concentrations prepared by making dilutions from a starting 10 mM stock solution in dimethylsulfoxide (DMSO) (Sigma, #D8418). The final DMSO concentration in the test is 1%. The reaction is carried out at 25° C. for 1 hour and detected on the EnVision® reader (Perkin Elmer) according to the recommendations of the supplier, Life Technologies.
The results are presented (Table 1) as the concentration values of the compound at which 50% of the kinase activity is inhibited, IC50 (μM), generated using the PRISM software (GraphPad).
(Time-resolved FRET reads energy transfer from a long-lived donor to a nearby acceptor.)

In the case of `CN1CCN(c2ccc3cc2OCCOCCOc2ccc4c(c2)-c2nc(ncc2CC4)N3)CC1` [Compound 3], the IC50 is 3 nM.
For `c1cc(N2CCNCC2)c2cc1Nc1ncc3c(n1)-c1cc(ccc1CC3)OCCOCCO2` [Compound 5] the value was 0.66 nM.
Turning to `c1cc(N2CCC(N3CCOCC3)C2)c2cc1Nc1ncc3c(n1)-c1cc(ccc1CC3)OCCOCCO2` (stereo not shown) [Compound 7], the IC50 turned out to be 7.2 nM.
For the compound `c1cc(N2CCC(N3CCCCC3)CC2)c2cc1Nc1ncc3c(n1)-c1cc(ccc1CC3)OCCOCCO2` [Compound 10], the IC50 came out at 1.1 nM.
For `c1cc(OCCN2CCCC2)c2cc1Nc1ncc3c(n1)-c1cc(ccc1CC3)OCCOCCO2` [Compound 14] the value was 3.2 nM.
In the case of `OC1CCN(c2ccc3cc2OCCOCCOc2ccc4c(c2)-c2nc(ncc2CC4)N3)CC1` [Compound 19] it was 5.3 nM.
For `CN1CC=C(c2ccc3cc2OCCOCCOc2ccc4c(c2)-c2nc(ncc2CC4)N3)CC1` [Compound 23] the value was 4.5 nM.
As to `c1cc(N2CC3CNCC3C2)c2cc1Nc1ncc3c(n1)-c1cc(ccc1CC3)OCCOCCO2` (stereo not shown) [Compound 29], the IC50 is 1.9 nM.
With `CN(C)C1CCN(c2ccc3cc2OCCOCCOc2ccc4c(c2)-c2nc(ncc2CC4)N3)C1` (stereo not shown) [Compound 30], the IC50 turned out to be 3.2 nM.
Consider `CN1CCN(c2ccc3cc2OCCOCCOc2ccc4c(c2)-c2nc(ncc2CC4)N3)CC1(C)C` [Compound 40], for which the IC50 was 1 nM.
